Literature values as cited in patent US20090054381A1, “METHODS FOR TREATING RESPIRATORY DISORDERS” (NitroMed, Inc., priority 2005, published 2009).
Structures can show the parent of a compound that is named as a salt.

SMILES	solubility in organic solvents (organic solvents such as ethanol, ether and chloroform)	solubility in water	solubility in alcohol (alcohol)	solubility in ether (ether)
O=[N+]([O-])O[C@H]1CO[C@H]2[C@@H]1OC[C@H]2O[N+](=O)[O-] [Diluted isosorbide dinitrate, 1,4,3,6-dianhydro-D-glucitol-2,5-dinitrate]	freely soluble	sparingly soluble		
NNc1nncc2ccccc12 [Hydralazine hydrochloride, hydralazine hydrochloride]		soluble	slightly soluble	very slightly soluble
